Reference: patent publication US7241789B2, “Substituted indoles and their use as integrin antagonists” (3-Dimensional Pharmaceutical, Inc., priority 2001, dated 2007)
pIC50: −log10 of the molar value.

What follows are molecules tested against T1, human αvβ3 (Homo sapiens, UniProt P05106+P06756) (assay: αvβ3-vitronectin Assay). Conditions: inhibition of binding of biotinylated human vitronectin to plate-coated human αvβ3, ELISA, room temperature.
T1 construct: purchased Chemicon CC1019
Procedure: The assay is based on the method of Dennis (Dennis, M. S., et al., Proteins 15: […] (1993)). Costar 9018 flat-bottom 96-well ELISA plates were coated overnight at […] with 100 μL/well of 10 μg/mL human fibrinogen (Calbiochem 341578) in 20 mM Tris-HCl pH 7.5, 150 mM NaCl, 2 mM CaCl2, 0.02% NaN3 (TAC buffer), and blocked for 1 hr at 37° C. with 150 μL/well of TAC buffer containing 0.05% Tween 20 and 1% bovine serum albumin (TACTB buffer). After washing 3 times with 200 μL/well of 10 mM Na2 HPO4 pH 7.5, 150 mM NaCl, 0.01% Tween 20 (PBST buffer), controls or test compound (0.027–20.0 μM) were mixed with 40 μg/mL human GPIIbIIIa (Enzyme Research Laboratories) in TACTB buffer, and 100 μL/well of these solutions were incubated for 1 hr at 37° C. The plate was then washed 5 times with PBST buffer, and 100 μL/well of a monoclonal anti-GPIIbIIIa antibody in TACTB buffer (1 μg/mL, Enzyme Research Laboratories MabGP2b3a) was incubated at 37° C. for 1 hr. After washing (5 times with PBST buffer), 100 μL/well of goat anti-mouse IgG conjugated to horseradish peroxidase (Kirkegaard & Perry 14–23–06) was incubated at 37° C. for 1 hr (25 ng/mL in PBST buffer), followed by a 6-fold PBST buffer wash. The plate was developed by adding 100 μL/well of 0.67 mg o-phenylenediamine dihydrochloride per mL of 0.012% H2O2, 22 mM sodium citrate, 50 mM sodium phosphate, pH 5.0 at room temperature. The reaction was stopped with 50 μL/well of 2M H2SO4, and the absorbence at 492 nm was recorded. Percent (%) inhibition was calculated from the average of three separate determinations relative to buffer controls (no test compound added), and a four parameter fit (Marquardt, D. W., J. Soc. Indust. Appl. Math. 11:431–441 (1963)) was used to estimate the half maximal inhibition concentration (IC50).
The assay was based on the method of Niiya (Niiya, K., et al., Blood 70:475–483 (1987)). Costar 9018 flat-bottom 96-well ELISA plates were coated overnight at room temperature with 100 μL/well of 0.4 μg/mL human αvβ3 (Chemicon CC1019) in TS buffer (20 mM Tris-HCl pH 7.5, 150 mM NaCl, 1 mM CaCl2, 1 mM MgCl2, 1 mM MnCl2). All subsequent steps were performed at room temperature. Plates were blocked for 2 hr with 150 μL/well of TS buffer containing 1% BSA (TSB buffer), and washed 3 times with 200 μL/well of PBST buffer. Controls or test compound (0.0001–20.0 μM) were mixed with 1 μg/mL of human vitronectin (Chemicon CCO80) that had been biotinylated in-house with sulfo-NHS-LC-LC-biotin (Pierce 21338, 20:1 molar ratio), and 100 μL/well of these solutions (in TSB buffer) were incubated for 2 hr. The plate was then washed 5 times with PBST buffer, and 100 μL/well of 0.25 μg/mL NeutrAvidin-horseradish peroxidase conjugate (Pierce 31001) in TSB buffer was incubated for 1 hr. Following a 5-fold PBST buffer wash, the plate was developed and results were calculated as described for the fibrinogen-IIbIIIa assay.

T1 sequence (P06756 31-889 limits assumed): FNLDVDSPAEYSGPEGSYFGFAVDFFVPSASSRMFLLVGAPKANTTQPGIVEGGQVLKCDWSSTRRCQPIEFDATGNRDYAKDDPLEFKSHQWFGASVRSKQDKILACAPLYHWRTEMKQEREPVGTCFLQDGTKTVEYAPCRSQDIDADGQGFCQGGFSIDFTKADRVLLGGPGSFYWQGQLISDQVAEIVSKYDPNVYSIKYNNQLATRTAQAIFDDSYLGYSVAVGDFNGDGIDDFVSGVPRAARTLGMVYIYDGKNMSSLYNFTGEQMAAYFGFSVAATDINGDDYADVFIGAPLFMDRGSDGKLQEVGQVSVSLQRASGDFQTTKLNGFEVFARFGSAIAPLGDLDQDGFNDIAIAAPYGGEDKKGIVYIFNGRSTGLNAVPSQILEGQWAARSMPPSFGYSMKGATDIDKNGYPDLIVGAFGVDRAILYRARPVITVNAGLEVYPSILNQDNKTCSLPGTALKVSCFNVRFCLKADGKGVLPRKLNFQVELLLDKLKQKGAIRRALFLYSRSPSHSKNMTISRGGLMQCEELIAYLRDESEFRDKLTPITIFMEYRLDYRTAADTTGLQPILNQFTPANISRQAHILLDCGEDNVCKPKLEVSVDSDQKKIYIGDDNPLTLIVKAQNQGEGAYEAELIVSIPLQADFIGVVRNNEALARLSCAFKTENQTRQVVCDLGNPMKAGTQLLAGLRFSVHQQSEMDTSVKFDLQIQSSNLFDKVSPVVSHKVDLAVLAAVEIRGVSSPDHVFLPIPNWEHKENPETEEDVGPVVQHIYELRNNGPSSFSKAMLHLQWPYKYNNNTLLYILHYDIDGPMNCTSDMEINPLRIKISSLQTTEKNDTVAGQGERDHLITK
T1 sequence (P06756 891-1048 limits assumed): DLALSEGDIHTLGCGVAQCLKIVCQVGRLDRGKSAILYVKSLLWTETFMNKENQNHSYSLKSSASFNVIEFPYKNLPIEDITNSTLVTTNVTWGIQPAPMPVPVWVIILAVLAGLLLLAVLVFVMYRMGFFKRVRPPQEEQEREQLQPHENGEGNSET
T1 sequence (P05106 27-788): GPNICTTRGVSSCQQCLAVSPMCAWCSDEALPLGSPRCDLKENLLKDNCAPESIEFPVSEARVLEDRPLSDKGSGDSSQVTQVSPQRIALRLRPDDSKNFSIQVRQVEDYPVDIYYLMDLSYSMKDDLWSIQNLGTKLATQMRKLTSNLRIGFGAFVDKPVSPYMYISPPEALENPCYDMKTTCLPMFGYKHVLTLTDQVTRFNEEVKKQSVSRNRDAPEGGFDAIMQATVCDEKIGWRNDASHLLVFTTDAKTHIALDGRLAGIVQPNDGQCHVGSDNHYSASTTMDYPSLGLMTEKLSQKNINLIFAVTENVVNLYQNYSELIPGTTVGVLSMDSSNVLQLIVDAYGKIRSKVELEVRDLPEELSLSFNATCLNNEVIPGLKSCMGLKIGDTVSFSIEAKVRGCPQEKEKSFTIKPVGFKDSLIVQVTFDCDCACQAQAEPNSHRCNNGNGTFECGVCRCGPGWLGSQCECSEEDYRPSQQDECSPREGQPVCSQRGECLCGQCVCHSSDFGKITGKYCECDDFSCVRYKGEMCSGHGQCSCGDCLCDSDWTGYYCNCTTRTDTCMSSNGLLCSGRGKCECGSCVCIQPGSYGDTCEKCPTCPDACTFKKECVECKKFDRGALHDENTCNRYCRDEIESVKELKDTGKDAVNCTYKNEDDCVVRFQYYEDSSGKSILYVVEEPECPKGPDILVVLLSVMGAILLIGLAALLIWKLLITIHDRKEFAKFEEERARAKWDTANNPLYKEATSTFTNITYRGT

In order of falling pIC50:
1. O=C(O)CC(c1cccnc1)n1ccc2cc(OCCc3ccc4c(n3)NCCC4)ccc21 (stereo not shown) [Example 38, 3-Pyridin-3-yl-3-{5-[2-(5,6,7,8-tetrahydro-[1,8]naphthyridin-2-yl)-ethoxy]-indol-1-yl}-propionic acid]  9.62
2. CCCC(CC(=O)O)n1ccc2cc(OCCc3ccc4c(n3)NCCC4)ccc21 (stereo not shown) [Example 14, 3-{5-[2-(5,6,7,8-Tetrahydro-[1,8]naphthyridin-2-yl)-ethoxy]-indol-1-yl}-hexanoic acid]  8.40
3. O=C(O)CCn1ccc2cc(OCCc3ccc4c(n3)NCCC4)ccc21 [Example 15, 3-{5-[2-(5,6,7,8-Tetrahydro-[1,8]naphthyridin-2-yl)-ethoxy]-indol-1-yl}-propionic acid]  8.22
4. CNc1cccc(CCOc2ccc3c(ccn3CCC(=O)O)c2)n1 [Example 5, 3-(5-{2-[6-(Methylamino)-2-pyridyl]ethoxy}indolyl)propanoic acid]  7.30
5. 3-{5-[3-(2-Pyridylamino)propoxy]indolyl}propanoic acid ammonium salt [Example 1]  6.30
6. CC(Cn1ccc2cc(OCCCNc3ccccn3)ccc21)C(=O)O (stereo not shown) [Example 7, 2-Methyl-3-{5-[3-(2-pyridylamino)propoxy]indolyl}propanoic acid]  6.30
7. O=C(O)[C@@H]1C[C@H]1n1ccc2cc(OCCCNc3ccccn3)ccc21 (relative stereo) [Example 4]  6.17
